Our source for the Activity, IC50 and MIC50 values is ChEMBL document CHEMBL2321710, “Bioactive polyhydroxylated steroids from the Hainan soft coral Sinularia depressa Tixier-Durivault” (Bioorg Med Chem Lett, 2013).

The target of assay [1] is Amyloid-beta precursor protein (Homo sapiens) (UniProt P05067). As to the kind of experiment: Neuroprotectivie activity against amyloid beta (25 to 35)-induced toxicity in human SH-SY5Y cells assessed as increase in cell viability at 10 uM incubated for 2 hrs prior to amyloid beta (25 to 35)-challenge measured after 24 hrs by MTT assay relative to control. Type of assay: functional, cell-based. Background: Formazan colour is commonly taken as a measure of viable cells.
Sequence of Amyloid-beta precursor protein (Homo sapiens) (P05067 whole entry): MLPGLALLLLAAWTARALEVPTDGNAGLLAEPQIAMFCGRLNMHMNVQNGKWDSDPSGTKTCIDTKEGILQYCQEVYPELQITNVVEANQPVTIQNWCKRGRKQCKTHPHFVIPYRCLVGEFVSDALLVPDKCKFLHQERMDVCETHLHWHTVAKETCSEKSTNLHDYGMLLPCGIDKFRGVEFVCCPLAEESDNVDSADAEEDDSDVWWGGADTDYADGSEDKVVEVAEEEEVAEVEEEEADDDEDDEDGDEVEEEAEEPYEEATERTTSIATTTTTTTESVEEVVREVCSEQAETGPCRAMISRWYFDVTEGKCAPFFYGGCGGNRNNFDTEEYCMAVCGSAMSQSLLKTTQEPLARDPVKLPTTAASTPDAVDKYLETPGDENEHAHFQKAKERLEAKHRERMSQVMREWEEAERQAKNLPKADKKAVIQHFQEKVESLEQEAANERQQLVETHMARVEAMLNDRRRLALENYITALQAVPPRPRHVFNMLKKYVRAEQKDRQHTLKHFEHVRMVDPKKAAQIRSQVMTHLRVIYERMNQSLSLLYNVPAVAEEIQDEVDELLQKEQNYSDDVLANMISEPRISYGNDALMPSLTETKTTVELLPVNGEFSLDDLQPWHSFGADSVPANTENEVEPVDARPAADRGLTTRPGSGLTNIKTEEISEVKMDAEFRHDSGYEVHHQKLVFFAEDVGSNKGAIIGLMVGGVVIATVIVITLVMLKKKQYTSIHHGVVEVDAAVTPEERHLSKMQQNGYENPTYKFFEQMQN

A short description of assay [2]: Neuroprotectivie activity against serum deprivation-induced toxicity in human SH-SY5Y cells assessed as increase in cell viability at 10 uM relative to control. Type of assay: functional.
Assay [3] addresses T1, Tyrosine-protein phosphatase non-receptor type 1 (Homo sapiens, UniProt P18031).
T1 sequence (P18031 whole entry): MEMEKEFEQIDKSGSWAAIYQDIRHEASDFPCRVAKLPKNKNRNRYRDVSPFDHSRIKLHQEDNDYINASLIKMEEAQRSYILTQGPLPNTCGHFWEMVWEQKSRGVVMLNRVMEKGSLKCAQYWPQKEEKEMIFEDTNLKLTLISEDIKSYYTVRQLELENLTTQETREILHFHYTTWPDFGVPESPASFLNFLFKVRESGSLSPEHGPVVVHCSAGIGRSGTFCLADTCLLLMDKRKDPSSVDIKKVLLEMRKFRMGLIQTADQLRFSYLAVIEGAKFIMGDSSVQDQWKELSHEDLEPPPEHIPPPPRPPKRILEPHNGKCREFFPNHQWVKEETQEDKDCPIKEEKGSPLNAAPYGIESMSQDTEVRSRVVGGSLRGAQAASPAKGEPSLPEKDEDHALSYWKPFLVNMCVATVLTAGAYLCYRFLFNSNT
In words: Inhibition of human PTP1B.

Another assay has as its system Staphylococcus aureus. As to the kind of experiment: Antibacterial activity against Staphylococcus aureus Newman […]. In kind it is functional, organism-based.

Values after ≈ are worked out from the molar mass of the structure shown.

For orientation: IC50 means the concentration needed to halve the response being measured. `C=C(CC[C@@H](C)[C@H]1CC[C@H]2[C@@H]3CCC4=CC(=O)CC[C@]4(C)[C@H]3CC[C@]12C)C(C)C`: the Activity came out at 16.6% in assay [1] and 16.9% in assay [2]. This molecule also had an IC50 in assay [3] of 15.3 µM. The MIC50 is the lowest concentration that inhibits either 50% of growth or 50% of the strains tested, depending on the study. Low values mean higher susceptibility, high ones lower susceptibility. The molecule `C=C(CC[C@@H](C)[C@H]1CC[C@H]2[C@@H]3[C@@H](OC(C)=O)C=C4C[C@@H](O)CC[C@]4(CO)[C@H]3CC[C@]12C)C(C)C` displayed an MIC50 in the assay with Staphylococcus aureus of 1000 µM (≈ 473 µg/mL). Regarding `C=C(CC[C@@H](C)[C@H]1CC[C@H]2[C@@H]3C[C@@H](O)[C@@]4(O)C[C@@H](O)CC[C@]4(COC(C)=O)[C@H]3CC[C@]12C)C(C)C` [ARMATINOL B], the MIC50 in the assay with Staphylococcus aureus stood at 15.6 µM (≈ 7.66 µg/mL). In turn, `C=C(CC[C@@H](C)[C@H]1CC[C@H]2[C@@H]3CC[C@H]4[C@H](C)[C@@H](O)CC[C@]4(C)[C@H]3CC[C@]12C)C(C)C` came in with an IC50 in assay [3] of 19.5 µM. Consider `C=C(CC[C@@H](C)[C@H]1CC[C@@H]2[C@]1(C)C[C@H](O)[C@@H]1[C@@]3(C)CC[C@H](O)[C@@H](C)[C@@H]3CC[C@@]21O)C(C)C`, for which the Activity in assay [1] came out at 20.1%. Molecule `C[C@@H]1O[C@@H]1P(=O)(O)O` [FOSFOMYCIN SODIUM] registered an IC50 with Staphylococcus aureus of 137 µM. In assay [3], `C=C(CC[C@@H](C)[C@H]1CC[C@@H]2[C@]1(C)CC[C@@H]1[C@@]3(C)CC[C@H](OC(C)=O)[C@@H](C)[C@@H]3CC[C@@]21O)C(C)C` showed an IC50 of 22.7 µM. As to `C=C(CC[C@@H](C)[C@H]1CC[C@@H]2[C@]1(C)CC[C@H]1[C@]23CC[C@]2(C[C@@H](O)CC[C@]12C)OO3)C(C)C`, the MIC50 in the assay on Staphylococcus aureus is 500 µM (≈ 215 µg/mL).
